Consider 16 compounds from PubChem BioAssay (NCI).

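How tested: cells in 96-well plates exposed to compound for 48 hours at five concentrations. TGI is the concentration that stops growth completely.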

Some test systems named below: MALME-3M melanoma; HCC-2998 colon; OVCAR-5 ovarian; CCRF-CEM leukemia; HOP-62 NSCLC; OVCAR-3 ovarian; SNB-19 CNS; A498 renal; HCT-116 colon; MDA-MB-231 breast.
Holding throughout (test): inhibition of tumour cell growth, NCI panel, 48 h

As for `O=C(CC1(O)C(=O)Nc2ccc(Br)cc21)c1cccc([N+](=O)[O-])c1` (stereo not drawn), the TGI with MALME-3M melanoma was above 100 µM; with HCC-2998 colon, above 100 µM; with OVCAR-5 ovarian it was above 100 µM; in the experiment with CCRF-CEM leukemia, 99.6 µM; in the experiment with HOP-62 NSCLC, above 100 µM; in the experiment on OVCAR-3 ovarian it was above 100 µM. Moreover, in the experiment on SNB-19 CNS, the TGI is above 100 µM.
As for `BrC(/C=N/Nc1nnc(-c2ccccc2)c(-c2ccccc2)n1)C(Br)c1ccccc1` (stereo not drawn), the TGI in the experiment on MALME-3M melanoma is above 100 µM; with HCC-2998 colon, above 100 µM; with OVCAR-5 ovarian, above 100 µM; with CCRF-CEM leukemia, 94.7 µM; with HOP-62 NSCLC, 92.2 µM; in the experiment with OVCAR-3 ovarian, above 100 µM. In addition, the TGI with A498 renal and with SNB-19 CNS was above 100 µM in each case.
With `CCCCP1(=O)C=CC(Cl)=C(C)C1` (stereo not drawn), the TGI in the experiment with MALME-3M melanoma, in the experiment on HCC-2998 colon, in the experiment on OVCAR-5 ovarian, with HCT-116 colon, in the experiment with CCRF-CEM leukemia and with HOP-62 NSCLC was above 100 µM each time. In addition, the TGI in the experiment with OVCAR-3 ovarian and in the experiment on A498 renal was above 100 µM in each case.
With `Cc1nc2ccccc2c(=O)n1/N=C(\N=Nc1ccc(Cl)cc1)c1ccc(N(C)C)cc1`, the TGI in the experiment with HCT-116 colon, with CCRF-CEM leukemia, with HOP-62 NSCLC, with A498 renal and in the experiment on SNB-19 CNS was above 100 µM each time.
As for `O=C1C(=C2C(=O)c3ccccc3[N+]2=O)N([O-])c2ccccc21`, the TGI in the experiment with OVCAR-5 ovarian was above 100 µM; in the experiment with CCRF-CEM leukemia it was 63.8 µM; with OVCAR-3 ovarian, 39.7 µM; in the experiment with A498 renal, 73.8 µM; with SNB-19 CNS it was above 100 µM.
For the compound `COc1ccc(Cc2c3cc(OC)c(OC)cc3cc[n+]2C)cc1`, the TGI in the experiment on MALME-3M melanoma is above 60.3 µM; with HCC-2998 colon it was above 32.8 µM; with OVCAR-5 ovarian, above 100 µM; in the experiment with HCT-116 colon, above 24.8 µM; with CCRF-CEM leukemia, above 100 µM; in the experiment with HOP-62 NSCLC, above 48.7 µM. The values for the TGI in the experiment with OVCAR-3 ovarian, with A498 renal and in the experiment with SNB-19 CNS were 36.2 µM, above 100 µM and above 31.4 µM, respectively.
Turning to `N#CC1(C2CC(=O)N(c3ccccc3)C2=O)CCCCC1=O` (stereo not drawn), the TGI in the experiment on MALME-3M melanoma, with HCC-2998 colon, with OVCAR-5 ovarian, in the experiment with CCRF-CEM leukemia, with OVCAR-3 ovarian and in the experiment on SNB-19 CNS was above 100 µM in each case.
As to `CC[C@H]1CNC(=O)CC1CC(=O)OC` (stereo partly drawn), the TGI in the experiment with MALME-3M melanoma, in the experiment on HCC-2998 colon, with OVCAR-5 ovarian, in the experiment on HCT-116 colon, in the experiment on HOP-62 NSCLC and with A498 renal was above 100 µM each time. Besides, in the experiment on SNB-19 CNS, the TGI was above 100 µM.
For `C#CC[C@]12CC(=O)CC[C@H]1CC1(C2)OCCO1`, the TGI in the experiment on MALME-3M melanoma, in the experiment on HCC-2998 colon, in the experiment with HCT-116 colon, in the experiment on CCRF-CEM leukemia, with HOP-62 NSCLC and in the experiment on OVCAR-3 ovarian was above 100 µM in each case. The TGI with A498 renal and in the experiment on SNB-19 CNS was above 100 µM in each case.
As to `CC(=O)NNc1nc(C)c(C(=O)NNC(=O)C(=O)Nc2ccc(C)cc2[N+](=O)[O-])s1`, the TGI in the experiment on MALME-3M melanoma, in the experiment with HCC-2998 colon, with OVCAR-5 ovarian, in the experiment with HCT-116 colon, in the experiment with CCRF-CEM leukemia and in the experiment with HOP-62 NSCLC was above 100 µM each time. In addition, the TGI with OVCAR-3 ovarian, in the experiment with A498 renal and in the experiment on SNB-19 CNS was above 100 µM in each case.
In the case of `Cc1cc(Br)ccc1N=NC1C(=O)ON=C1c1ccccc1` (stereo not drawn), the TGI is above 100 µM in the experiment with MALME-3M melanoma; 76.4 µM with HCC-2998 colon; above 100 µM in the experiment with OVCAR-5 ovarian; above 100 µM in the experiment with HCT-116 colon; above 100 µM with HOP-62 NSCLC; above 100 µM in the experiment on OVCAR-3 ovarian. The TGI with A498 renal and in the experiment on SNB-19 CNS was above 100 µM in each case.
Regarding `CC1(C)OC2OC(/C=C/[N+](=O)[O-])C3OC(C)(C)OC3C2O1` (stereo not drawn), the TGI with MALME-3M melanoma was 10.8 µM; in the experiment on HCC-2998 colon, 31.1 µM; with OVCAR-5 ovarian it was 38.1 µM; with HCT-116 colon, 23 µM; with CCRF-CEM leukemia, above 75.7 µM; with HOP-62 NSCLC, 38.3 µM. Moreover, the TGI in the experiment with OVCAR-3 ovarian was 34.7 µM; with A498 renal, 47.1 µM; in the experiment on SNB-19 CNS it was 33.5 µM.
Take `CC1CC(=O)C(CC(=O)O)[C@H]1C(C(=O)C(=O)Nc1cc(Cl)ccc1Cl)[N+](=O)[O-]` (stereo partly drawn): the TGI with HCC-2998 colon, in the experiment with OVCAR-5 ovarian, with CCRF-CEM leukemia, with HOP-62 NSCLC, in the experiment with OVCAR-3 ovarian and in the experiment with A498 renal was above 100 µM in each case. In the experiment with SNB-19 CNS, this compound came in with a TGI above 100 µM.
For the compound `c1c[nH]c(CN2CCN(Cc3ncc[nH]3)CC2)n1`, the TGI in the experiment on MALME-3M melanoma, in the experiment with OVCAR-5 ovarian, in the experiment with HCT-116 colon, with CCRF-CEM leukemia, with HOP-62 NSCLC and in the experiment on OVCAR-3 ovarian was above 100 µM throughout. In addition, the TGI with MDA-MB-231 breast, in the experiment on A498 renal and in the experiment on SNB-19 CNS was above 100 µM throughout.
Consider `C[C@H](O)CCC(=O)c1ccoc1`, for which the TGI with MALME-3M melanoma, in the experiment with HCC-2998 colon, with OVCAR-5 ovarian, in the experiment on HCT-116 colon, in the experiment with CCRF-CEM leukemia and in the experiment on HOP-62 NSCLC was above 100 µM in each case. The TGI in the experiment with OVCAR-3 ovarian, with A498 renal and in the experiment with SNB-19 CNS was above 100 µM in each case.
As to `CCc1cccc(CC)c1NC1=CC(=O)C(=O)c2ccccc21`, the TGI in the experiment with MALME-3M melanoma was 31.9 µM; in the experiment with HCC-2998 colon, 28.8 µM; with OVCAR-5 ovarian, 31 µM; with HCT-116 colon, 34.8 µM; in the experiment with CCRF-CEM leukemia, above 100 µM; in the experiment with HOP-62 NSCLC, 40.3 µM. Also, the results for the TGI with OVCAR-3 ovarian, in the experiment with A498 renal and with SNB-19 CNS were 8.39 µM, 39.5 µM and 63.3 µM, respectively.
